US9085559B2, “Triazine-aryl-bis-indoles and process for preparation thereof” (COUNCIL OF SCIENTIFIC & INDUSTRIAL RESEARCH, priority 2010, dated 2015)
In brackets after ≈: the same amount, converted by molar mass.

What was measured:
[1] = test system: Vascular Cell Adhesion Molecule type 1 (VCAM-1); assay: Cell-ELISA, TNF-α induced VCAM-1 expression on HUVECs; format: cell-based; details: Homo sapiens, HUVEC; HUVECs pretreated 2 hours, TNF-α 16 hours
Experimental: FIG. 4. Inhibition of TNF-α induced expression Intercellular Adhesion Molecule type 1 (ICAM-1) and Vascular Cell Adhesion Molecule type 1 (VCAM-1) on HUVECs by IICT-TA67. To determine the effect of IICT-TA67 on TNF-α induced cell adhesion molecules such as ICAM-1 and VCAM-1, HUVECs were pretreated with various concentrations of IICT-TA67 for 2 hours followed by induction with TNF-α for 16 hours. The cell surface expression of cell adhesion molecules was measured by ELISA.
Cell-ELISA was used for measuring the expression of ICAM-1 on surface of endothelial cells. Endothelial cells were incubated with or without IICT-TA67 at desired concentrations for the required period, followed by treatment with TNF-α (10 ng/ml) for 16 h for ICAM-1 and VCAM-1 expression. The cells were fixed with 1.0% glutaraldehyde. Non-specific binding of antibody was blocked by using skimmed milk (3.0% in PBS). Cells were incubated overnight at 4° C. with anti-ICAM-1 mAb anti-VCAM-1 antibody, diluted in blocking buffer, the cells were further washed with PBS and incubated with peroxidase-conjugated goat anti-mouse secondary Abs. […] Reaction was stopped by the addition of 2 N sulfuric acid and absorbance at 490 nm was measured using microplate reader (Spectramax 190, Molecular Devices, USA).

[2] = test system: rodent; assay: Prediction of acute oral LD50 from the IC50 by Halle's Registry of cytotoxicity (RC) prediction model; details: log (LD50)=0.435×log (IC50)+0.625
Excerpt: FIG. 8. IICT-TA67 is not toxic. To evaluate the cytotoxicity of test chemical (IICT-TA67) BALB/c 3T3 cell line was used for Neutral Red Uptake (NRU) cytotoxicity test. The test result has been used to determine IC50 for IICT-TA67 and acute oral toxicity (LD50) in rodent was predicted.
Basal cytotoxicity of IICT-TA67 has been performed to measure IC50 and thereafter predict in vivo acute oral LD50 values in rodent by using Halle's Registry of cytotoxicity (RC) prediction model: log (LD50)=0.435×log (IC50)+0.625 (Halle, 1998; Spielmann et al., 1999). Balb/c 3T3 Neutral Red Dye Uptake (NRU) cytotoxicity assay procedure was adopted (Liebsch & Spielmann 1995). In brief 3T3 cell were grown in 96 well microtitre plates and exposed to IICT-TA-67. After 48-hour incubation, the test material was removed and Neutral red (NR) solution was applied to the cells. […] The NRU was determined by using a microtitre plate reader to measure the optical density at 540 nm of the eluted dye in 96 well plate. A calculation of cell viability expressed as NRU was made for each concentration of the test chemical by using the mean NRU of 6 replicate values per test concentration. The cell viability value was compared with the mean NRU of all vehicle control values and relative cell viability was then expressed as percent of untreated vehicle control. […]

[3] = test system: PDE-4; assay: Phosphodiesterase 4 assay ([3H]cAMP SPA), enzyme preparation from rat heart; format: biochemical; details: 0.1-20 μg/ml, compared with rolipram (FIG. 2)
[4] = test system: PDE-4; assay: as above; format: biochemical; details: PDE-4 activity, dose 10 μg/ml
Experimental: FIG. 2. […] To examine whether IICT-TA67 inhibits PDE-4 activity in vitro, enzyme preparations were incubated in the absence or presence of different concentrations (1-20 μg/ml) of IICT-TA67 and breakdown of cAMP was monitored by β counter.
Table 1. Measurement of phosphodiesterase (PDE)-4 activity by compounds.
Heart was excised from anesthetized rat and transfer into normal saline solution. […] The homogenate was centrifuged at 500×g for 5 minute at 4° C. Then sup was taken for further centrifuged at 40,000×g for 30 minute (ultra centrifugation). After centrifugation supernatant was collected for phosphodiesterase assay. Protein concentration was estimated and for each assay, 2.5 μg protein (PDE enzyme preparation) was used.
Phosphodiesterase 4 assay: Phosphodiesterase 4 assay was conducted with [^3H] cAMP SPA enzyme assay (GE Amersham, UK) using 2.5 μg enzyme preparation for each well. Into each well 60 μl water, 10 μl assay buffer supplied with the kit, 10 μl compound (inhibitor), 10 μl PDE enzyme or homogenizing buffer (blank) and 10 μl radiolabel led cAMP ([^3H]cAMP, GE Amersham, UK) were added. To check activity of the enzyme without inhibitor 10 μl DMSO was added in place of inhibitor to a separate well. The reaction mixtures were incubated for 30 mi at 30° C. The reaction was stopped by adding 50 μl SPA bead supplied with the kit. It was then mixed well and allowed to stand at room temperature for 20 min. Breakdown of cAMP in each tube was monitored by β counter. The reading in each tube was obtained in counts per minute (CPM). The reading of the blank tube (without enzyme) was subtracted from each tube to normalize the counts. The enzyme activity was calculated by considering the CPM reading without any inhibitor (compound) as 100.

COc1ccc(C(c2[nH]c3ccccc3c2CC(=O)O)c2[nH]c3ccccc3c2CC(=O)O)cc1Oc1nc(NC2CC2)nc(NC2CC2)n1 [Compound 7, 2,2′-[2,2′-3-(4,6-bis-cyclopropylamino)-1,3,5-triazin-2-yl-oxy-4-methoxy-phenyl]-methylene-bis-(1H-indole-3,3-diyl)-diacetic acid]
IC50 [1]: 16.6 µg/mL (≈ 24.6 µM) | predicted acute oral LD50 [2]: 430 mg/kg body weight | inhibition of PDE4 activity [3]: inhibited PDE4 activity in a dose dependent manner | Inhibition % [4]: 60%
